From PMC10582325 (Frontiers in Pharmacology, 2023)
Values joined by “and” are separate entries in the source; they are usually repeats but may differ in a detail not shown here. Identical values can stand only once. Like-named read-outs stand apart in the source and are kept apart here.

Experiments:
CYP3A4/5 = conditions: cited from earlier work
[1] = Stability of BDQ, M2 and TBI-166 in mice plasma (LC-MS/MS validation)
phospholipidosis = conditions: cited from earlier work
[2] = Steady-state plasma pharmacokinetics of BDQ, M2 and TBI-166 in BALB/c mice; conditions: for AUC(0-t): Plasma; for t 1/2: after last dose
[3] = Lung and spleen tissue exposure in BALB/c mice
[4] = Plasma concentration 3 h post dose in murine model of tuberculosis; assay type: in vivo, BALB/c mice infected with M. tuberculosis H37Rv; conditions: TB model; for plasma concentration after coadministration as percent of BDQ alone: 3 h post dose, p < 0.05; for concentration at 3 h: female, BALB/c, mouse, plasma, read-out: Mean plasma concentration at three hours after oral administration
rCYP3A4 = molecular target: T1, rCYP3A4 (Homo sapiens, UniProt P08684); assay: Reaction phenotyping of BDQ in recombinant P450 enzymes (rCYPs method); assay type: in vitro ADME; conditions: BDQ 1 μM, CYP3A4
T1 construct: purchased BD Gentest (Woburn, MA, United States)
T1 sequence (P08684 whole entry): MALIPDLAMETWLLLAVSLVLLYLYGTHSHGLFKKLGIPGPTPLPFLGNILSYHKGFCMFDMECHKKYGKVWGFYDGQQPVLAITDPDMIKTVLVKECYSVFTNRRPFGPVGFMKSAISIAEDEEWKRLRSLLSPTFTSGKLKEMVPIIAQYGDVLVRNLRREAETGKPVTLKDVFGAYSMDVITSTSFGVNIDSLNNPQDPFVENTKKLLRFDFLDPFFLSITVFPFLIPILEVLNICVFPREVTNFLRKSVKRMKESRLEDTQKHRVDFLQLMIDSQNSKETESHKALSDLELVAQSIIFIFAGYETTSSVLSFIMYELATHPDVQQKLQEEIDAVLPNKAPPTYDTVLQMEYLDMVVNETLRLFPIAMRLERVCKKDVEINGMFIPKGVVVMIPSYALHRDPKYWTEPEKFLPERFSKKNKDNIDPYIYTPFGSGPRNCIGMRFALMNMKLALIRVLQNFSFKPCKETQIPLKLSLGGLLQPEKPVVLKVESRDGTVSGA

rCYP2C19 = molecular target: T2, rCYP2C19 (Homo sapiens, UniProt P33261); assay: as above; assay type: in vitro ADME; conditions: BDQ 1 μM, CYP2C19
T2 construct: purchased BD Gentest (Woburn, MA, United States)
T2 sequence (P33261 whole entry): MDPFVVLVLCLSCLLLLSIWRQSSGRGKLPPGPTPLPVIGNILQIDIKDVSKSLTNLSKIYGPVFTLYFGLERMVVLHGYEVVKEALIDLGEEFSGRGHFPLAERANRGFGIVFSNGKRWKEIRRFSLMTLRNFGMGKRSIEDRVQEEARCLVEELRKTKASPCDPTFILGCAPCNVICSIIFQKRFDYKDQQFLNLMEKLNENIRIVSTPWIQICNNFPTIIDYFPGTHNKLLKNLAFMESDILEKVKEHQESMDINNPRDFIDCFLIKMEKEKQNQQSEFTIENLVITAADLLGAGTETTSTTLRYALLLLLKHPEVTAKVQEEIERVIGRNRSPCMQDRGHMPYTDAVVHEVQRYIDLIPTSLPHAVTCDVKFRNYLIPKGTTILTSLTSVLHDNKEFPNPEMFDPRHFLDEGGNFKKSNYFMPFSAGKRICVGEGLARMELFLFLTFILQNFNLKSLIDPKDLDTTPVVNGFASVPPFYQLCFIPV

[5] = mouse, in vivo
rCYP3A5 = molecular target: T3, rCYP3A5 (Homo sapiens, UniProt P20815); assay: Reaction phenotyping of BDQ in recombinant P450 enzymes (rCYPs method); assay type: in vitro ADME; conditions: BDQ 1 μM, CYP3A5
T3 construct: purchased BD Gentest (Woburn, MA, United States)
T3 sequence (P20815 whole entry): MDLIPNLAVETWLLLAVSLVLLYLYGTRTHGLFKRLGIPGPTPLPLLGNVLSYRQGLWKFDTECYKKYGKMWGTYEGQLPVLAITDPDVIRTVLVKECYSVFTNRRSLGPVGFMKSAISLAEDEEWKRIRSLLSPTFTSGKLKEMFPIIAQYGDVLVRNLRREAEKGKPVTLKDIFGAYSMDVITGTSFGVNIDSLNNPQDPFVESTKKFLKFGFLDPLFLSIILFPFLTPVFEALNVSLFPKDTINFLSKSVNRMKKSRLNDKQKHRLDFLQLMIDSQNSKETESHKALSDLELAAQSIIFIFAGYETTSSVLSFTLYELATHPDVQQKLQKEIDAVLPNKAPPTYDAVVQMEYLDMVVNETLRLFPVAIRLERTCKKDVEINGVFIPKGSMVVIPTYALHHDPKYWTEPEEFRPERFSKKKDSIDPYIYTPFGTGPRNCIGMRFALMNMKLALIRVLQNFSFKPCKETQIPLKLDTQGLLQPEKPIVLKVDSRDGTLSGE

[6] = male, BALB/c, mouse, in vivo
in vivo = conditions: male, BALB/c, mouse, tissue-to-plasma ratio (Kp)
rCYP2C8 = molecular target: T4, rCYP2C8 (Homo sapiens, UniProt P10632); assay: Reaction phenotyping of BDQ in recombinant P450 enzymes (rCYPs method); assay type: in vitro ADME; conditions: BDQ 1 μM, CYP2C8
T4 construct: purchased BD Gentest (Woburn, MA, United States)
T4 sequence (P10632 1-490): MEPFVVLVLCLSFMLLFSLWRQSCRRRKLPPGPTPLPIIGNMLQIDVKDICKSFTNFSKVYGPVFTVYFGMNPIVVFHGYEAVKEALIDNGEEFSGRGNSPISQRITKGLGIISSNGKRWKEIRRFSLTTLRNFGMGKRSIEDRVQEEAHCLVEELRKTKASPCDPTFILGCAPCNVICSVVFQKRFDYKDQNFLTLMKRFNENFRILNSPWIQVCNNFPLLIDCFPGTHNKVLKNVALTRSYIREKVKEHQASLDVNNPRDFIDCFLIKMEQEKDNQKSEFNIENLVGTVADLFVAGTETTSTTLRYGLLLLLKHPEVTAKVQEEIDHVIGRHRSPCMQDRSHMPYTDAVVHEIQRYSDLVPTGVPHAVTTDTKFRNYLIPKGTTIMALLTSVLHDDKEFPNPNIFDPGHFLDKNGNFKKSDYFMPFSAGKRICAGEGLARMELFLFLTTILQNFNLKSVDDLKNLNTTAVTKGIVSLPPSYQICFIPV

rCYP2A6 = molecular target: T5, rCYP2A6 (Homo sapiens, UniProt P11509); assay: as above; assay type: in vitro ADME; conditions: BDQ 1 μM, M2 formation, CYP2A6
T5 construct: purchased BD Gentest (Woburn, MA, United States)
T5 sequence (P11509 1-494): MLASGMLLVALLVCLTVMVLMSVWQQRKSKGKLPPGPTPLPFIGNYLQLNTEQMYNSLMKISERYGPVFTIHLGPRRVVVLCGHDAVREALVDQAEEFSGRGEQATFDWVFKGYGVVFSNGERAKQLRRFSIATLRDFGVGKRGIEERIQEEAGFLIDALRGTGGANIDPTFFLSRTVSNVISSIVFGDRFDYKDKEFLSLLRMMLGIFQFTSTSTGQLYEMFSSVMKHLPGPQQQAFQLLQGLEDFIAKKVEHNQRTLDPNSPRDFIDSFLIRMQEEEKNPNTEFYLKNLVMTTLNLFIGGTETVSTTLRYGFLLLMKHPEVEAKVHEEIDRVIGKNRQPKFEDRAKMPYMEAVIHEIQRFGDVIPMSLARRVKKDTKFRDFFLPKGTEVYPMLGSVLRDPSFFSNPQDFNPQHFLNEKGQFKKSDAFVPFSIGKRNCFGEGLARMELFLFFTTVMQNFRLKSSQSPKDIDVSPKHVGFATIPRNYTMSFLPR

[7] = TBI-166 group (20 mg/kg), W4, LLOQ 5, 5, 15 ng/mL for BDQ, TBI-166, M2
[8] = TBI-166 group (20 mg/kg), W8, LLOQ 5, 5, 15 ng/mL for BDQ, TBI-166, M2

## CC(C)/N=c1\cc2n(-c3ccc(Cl)cc3)c3ccccc3nc-2cc1Nc1ccc(Cl)cc1 [clofazimine]
CYP3A4/5
  CYP3A4/5 inhibitor strength: moderate-to-strong

## CNCC[C@@](O)(c1cccc2ccccc12)[C@H](c1ccccc1)c1cc2cc(Br)ccc2nc1OC [M2, N-desmethyl-bedaquiline]
[1]; 4℃ for 24 h, 45 ng/mL
  Stability in mice plasma, RE: 5.42%
[1]; 4℃ for 24 h, 225 ng/mL
  Stability in mice plasma, RE: 13.08%
[1]; 4℃ for 24 h, 2250 ng/mL
  Stability in mice plasma, RE: 9.97%
[1]; -40℃ for 7 d, 45 ng/mL
  Stability in mice plasma, RE: 15.73%
[1]; -40℃ for 7 d, 225 ng/mL
  Stability in mice plasma, RE: 2.77%
[1]; -40℃ for 7 d, 2250 ng/mL
  Stability in mice plasma, RE: 9.33%
[1]; Freeze-thaw three cycles, 45 ng/mL
  Stability in mice plasma, RE: 12.58%
[1]; Freeze-thaw three cycles, 225 ng/mL
  Stability in mice plasma, RE: 17.75%
[1]; Freeze-thaw three cycles, 2250 ng/mL
  Stability in mice plasma, RE: 6.90%
[1]; In auto-sample for 24 h, 45 ng/mL
  Stability in mice plasma, RE: 14.04%
[1]; In auto-sample for 24 h, 225 ng/mL
  Stability in mice plasma, RE: 17.58%
[1]; In auto-sample for 24 h, 2250 ng/mL
  Stability in mice plasma, RE: 4.83%
[1]; Room temperature for 24 h, 45 ng/mL
  Stability in mice plasma, RE: 9.38%
[1]; Room temperature for 24 h, 225 ng/mL
  Stability in mice plasma, RE: 17.30%
[1]; Room temperature for 24 h, 2250 ng/mL
  Stability in mice plasma, RE: 4.03%
phospholipidosis
  higher cardiotoxicity by inducing phospholipidosis compared with BDQ: 50 times
[2]; 1 h post dose
  mean plasma concentration in BDQ + TBI-166 group as percent of BDQ group: 85%
[2]; 1 h post dose (so in the source), BDQ group
  mean plasma concentration: 1,438 ng/mL
[2]; 1 h post dose, BDQ + TBI-166 group
  mean plasma concentration: 1,235.36 ng/mL
[2]; 3 h post dose
  mean plasma concentration in BDQ + TBI-166 group as percent of BDQ group: 75%
[2]; 3 h post dose, BDQ + TBI-166 group
  mean plasma concentration: 1,084.84 ng/mL
[2]; 3 h post dose, BDQ group
  mean plasma concentration: 1,438.31 ng/mL
[2]; BDQ + TBI-166 group vs BDQ group
  area under the curve ratio (AUCR): 0.66
[2]; BDQ + TBI-166 group (Table S4)
  AUC(0-t): 76250 ± 8100 ng·h/mL
[2]; BDQ group (Table S4)
  AUC(0-t): 115730 ± 25440 ng·h/mL
[2]; plasma, BDQ + TBI-166 group
  AUC(0-last): 76,310 ± 5,901 h·ng/mL
  AUC(0-last) as percent of single-drug group: 66%
  AUC(0-∞): 89,814 h·ng/mL
  C max: 1,235.36 ± 22.74 ng/mL
  MRT(0-t): 51.71 h
  T max: 1 h
[2]; plasma, BDQ + TBI-166 group (BDQ 25 mg/kg + TBI-166 20 mg/kg, gavage QD 21 days)
  t 1/2: 57.47 h
[2]; plasma, BDQ group (BDQ 25 mg/kg alone, gavage QD 21 days)
  t 1/2: 64.27 h
[2]; plasma, BDQ group (BDQ alone)
  AUC(0-last): 115,704 ± 19,589 h·ng/mL
  AUC(0-∞): 134,430 h·ng/mL
  C max: 1,438.31 ± 127.21 ng/mL
  MRT(0-t): 56.46 h
  T max: 3 h
[2]; plasma, BDQ group (reference)
  AUC(0-last) as percent of single-drug group: 100%
[2]; plasma, vs BDQ group
  decrease of AUC0-last after coadministration of BDQ with TBI-166: 34%
[3]; Lung, BDQ + TBI-166 group
  AUC(0-t): 4940.02 ± 756.58 µg·h/g
  tissue-to-plasma ratio (Kp): 64.79
[3]; Lung, BDQ group
  AUC(0-t): 4827.39 ± 818.42 µg·h/g
  tissue-to-plasma ratio (Kp): 41.72
[3]; Spleen, BDQ + TBI-166 group
  AUC(0-t): 6358.44 ± 1054.47 µg·h/g
  tissue-to-plasma ratio (Kp): 83.39
[3]; Spleen, BDQ group
  AUC(0-t): 4703.39 ± 1052.83 µg·h/g
  tissue-to-plasma ratio (Kp): 40.65
[3]; lungs
  exposure (AUC0-t) with vs without coadministration: similar
[3]; spleens
  increase of exposure (AUC0-t) after coadministration of BDQ with TBI-166: 1.5 fold
[4]; 4 weeks
  plasma concentration after coadministration as percent of BDQ alone: 87%
[4]; 8 weeks
  plasma concentration after coadministration as percent of BDQ alone: 79%
[4]; BDQ + TBI-166 group, W4
  Mean plasma concentration at three hours after oral administration: 970 ng/mL and 969.68 ± 206.81 ng/mL
[4]; BDQ + TBI-166 group, W8
  Mean plasma concentration at three hours after oral administration: 948 ng/mL and 948.31 ± 60.21 ng/mL
[4]; [7]
  Mean plasma concentration at three hours after oral administration: <LLOQ
[4]; [8]
  Mean plasma concentration at three hours after oral administration: <LLOQ

## COc1nc2ccc(Br)cc2cc1[C@@H](c1ccccc1)[C@@](O)(CCN(C)C)c1cccc2ccccc12 [BDQ, Bedaquiline]
rCYP3A4
  f m (fraction of drug metabolism by individual CYP enzyme): 73.1%
rCYP2C19
  f m (fraction of drug metabolism by individual CYP enzyme): 5.7%
[5]
  exposure (AUC0-t) with vs without coadministration: similar
rCYP3A5
  f m (fraction of drug metabolism by individual CYP enzyme): 3.5%
[6]
  AUC(0-last) as percent of single-drug group: 100%
[6]; po, 25 mg/kg
  MRT(0-t): 52.80 h
[4]; [7]
  Mean plasma concentration at three hours after oral administration: <LLOQ
[4]; [8]
  Mean plasma concentration at three hours after oral administration: <LLOQ
[4]; oral, 25 mg/kg, BDQ group (25 mg/kg), W4, LLOQ 5, 5, 15 ng/mL for BDQ, TBI-166, M2
  concentration at 3 h: 657 ± 142 ng/mL
[4]; oral, 25 mg/kg, BDQ group (25 mg/kg), W8, LLOQ 5, 5, 15 ng/mL for BDQ, TBI-166, M2
  concentration at 3 h: 920 ± 126 ng/mL
[4]; po, BDQ + TBI-166 group, W4
  concentration at 3 h: 647 ± 199 ng/mL
[4]; po, BDQ + TBI-166 group, W8
  concentration at 3 h: 889 ± 171 ng/mL
In vivo
  Kp: 19.7
rCYP2C8
  f m (fraction of drug metabolism by individual CYP enzyme): 8.8%
rCYP2A6
  f m (fraction of drug metabolism by individual CYP enzyme): 3.1%
